Experiments:
[1] = tested on: OSR1-GFP & SIX2-tdTomato reporter human iPS cell line; assay: SIX2-positive cell induction method 2, SIX2-tdTomato-positive cell rate by flow cytometer; assay type: cell-based; details: stage 3 medium with 5 ng/ml TGFβ1 and 0.5 μM Dorsomorphin, 12 to 22 days
Method: The OSR1-GFP & SIX2-tdTomato reporter human iPS cell line obtained by the method in Example 1 was cultured in the manner described in stage 1 of induction method 1 to become confluent on 10-cm dishes using SNL cells as feeder cells. A CTK solution was added to dissociate the cells. After removal of the feeder cells, the dissociated cells were suspended in a DMEM/F12 medium containing 1 μM TTNPB (Sigma, T3757), 1 μM CHIR99021, 1% GlutaMAX (100×), 2% FBS, and 0.5% PenStrep. Then, the cell suspensions were transferred to a low cell binding plate (LOW CELL BIND 6 WELL DISH) such that each well contained one-third to one-sixth of the cell suspension obtained from the 10-cm dish, followed by suspension culture at 37° C. in a 5% CO2 atmosphere for 2 days.
(§1) The cell mass obtained at stage 1 was transferred to dishes coated with Matrigel or dishes coated with Synthemax (prepared in the manner described in stage 2 of induction method 1). The medium was exchanged with a DMEM/F12 medium containing 1 μM TTNPB, 0.1% 2-mercaptoethanol (1000×), 1% GlutaMAX (100×), 10% KnockOut SR, 0.1 mM MEM NEAA, and 0.5% PenStrep, followed by adhesion culture at 37° C. in a 5% CO2 atmosphere for 3 to 9 days. In this case, the medium was exchanged every 3 days with a medium having the same conditions.
The medium was removed from the cells obtained at stage 2. […]

[2] = tested on: OSR1-positive cells sorted from OSR1-GFP & SIX2-tdTomato reporter human iPS cell line; assay: SIX2-positive cell induction method 3, SIX2-tdTomato-positive cell rate by flow cytometer; assay type: cell-based; details: stage 3 medium with 5 ng/ml TGFβ1 and 0.5 μM Dorsomorphin
Method: The OSR1-GFP & SIX2-tdTomato reporter human iPS cell line obtained by the method in Example 1 was cultured in the manner described in stage 1 of induction method 1 to become confluent in 10-cm dishes using SNL cells as feeder cells. A CTK solution was added to dissociate the cells. After removal of the feeder cells, Accutase™ (Innovative Cell Technologies, AT-104) was added to disperse iPS cells to result in single cells. Then, the obtained cells were suspended in a DMEM/F12 medium containing 10 μM Y-27632 (Wako, 253-00513), 1 μM CHIR99021, 1 μM TTNPB, 1% GlutaMAX (100×), 2% FBS, and 0.5% PenStrep. The obtained cell suspensions (1×10^5 cells/well (for a 96-well dish)) were transferred to a dish coated with 0.1% gelatin (Gelatin from porcine skin, Type A (Sigma, G1890)), followed by adhesion culture at 37° C. in a 5% CO2 atmosphere for 2 days.
as §1, with “cells” for “cell mass”, “were washed” for “was transferred to dishes coated”, “PBS.” for “Matrigel or dishes coated with Synthemax (prepared in the manner described in stage 2 of induction method 1).”
Accutase™ was added to cells obtained at stage 2 to dissociate the cells. […]

Compound	SIX2-tdTomato-positive cell rate [1]	SIX2-tdTomato-positive cell rate [2]
c1cc(-c2cnn3cc(-c4ccc(OCCN5CCCCC5)cc4)cnc23)ccn1 [Dorsomorphin, 6-[4-(2-piperidin-1-yl-ethoxy)phenyl]-3-pyridin-4-yl-pyrazolo[1,5-a]pyrimidine]	20.6±5.3%	31.1±10.0%
TGFβ1: TGFβ signaling activator protein (Peprotech)	20.6±5.3%	31.1±10.0%

— US11225642B2, “Method for producing renal progenitor cells” (KYOTO UNIVERSITY, priority 2013, dated 2022)
